According to US20210022305A1, “A HUMULUS PLANT VARIANT AND EXTRACTS THEREOF” (BOMI LLC, priority 2018, published 2021):

System: VIC cells
Experiment: VIC calcification reduction (Alizarin Red S nodule number and area)
Format: cell-based, porcine
Procedure: VIC Isolation and Culture. VICs were isolated from porcine aortic valve leaflets (Hormel, Austin, Minn.) by collagenase digestion and subsequently cultured in growth medium (15% FBS, 2 mM L-glutamine, 100 U/ml penicillin, and 100 µg/ml streptomycin in medium 199) at 37° C., 5% CO2 for two to four passages. VICs used in all experiments were seeded at a density of 50,000 cells/cm^2 onto 24-well or 96-well plates. During the experiments, the VICs were cultured in low-serum medium (1% FBS, 100 U/ml penicillin, 100 µg/ml streptomycin, 2 mM L-glutamine, in medium 199), and the medium was changed each day until the fifth day.
Culture Substrate Coatings. Tissue culture polystyrene (TCPS) plates (24-well or 96-well) were coated with type I collagen (Coll) (Inamed Biomaterials, Fremont, Calif.; […]), fibronectin (FN, 5 g/cm^2), fibrin (FB, […]), or left untreated (TCPS). For the FB coating, plates were first incubated overnight at 4° C. in fibrinogen (1 mg/mL), followed by three washes with 0.05% Tween 20 in phosphate-buffered saline (PBS) and 1 hour incubation with thrombin (0.6 mg/ml) at 37° C. (Gu et al., “Role of the MAPK/ERK Pathway in Valvular Interstitial Cell Calcification,” American Journal of Physiology—Heart and Circulatory Physiology 296(6):H1748-H1757 (2009), which is hereby incorporated by reference in its entirety). All coatings were prepared in 50 mM bicarbonate coating buffer, pH 8.5, and rinsed three times with PBS before cell seeding. The amounts of adsorbed proteins were measured on separate plates using the bicinchoninic acid protein assay (Pierce, Rockford, Ill.) to verify adsorption of protein coatings.
Quantification of Nodule Number and Size. After 5 days of culture in the presence or absence of U-0126 or PD-98059, VIC cultures were stained with Alizarin Red S (ARS) to facilitate quantification of calcified nodules, as ARS stains mineralized deposits red. Cultures were fixed with 10% neutral buffered formalin, stored at 4° C. overnight, and stained with a 2% solution of ARS in PBS. Positively stained nodules were manually counted under a microscope (Olympus IX51 with Hamamatsu 285 digital camera and Simple PCI digital imaging software; Compix, Imaging Systems, Cranberry Township, Pa.). Nodule size was measured using ImageJ software (National Institutes of Health), and photomicrographs were captured under 40 and 100 magnifications.
Multiplate wells containing calcifying VICs from 27 different tissue samples were treated with CBD of 8 different bioactivities, and 5 different mg concentrations, or left untreated. Average calcification was computed using the number of nodules per well, and the average area per nodule. Average total nodule area for untreated wells was 3.27 mm^2 (SD=0.32, min=0.5, max=4.0) per well. All reported percent reductions in calcification were computed by dividing average nodule area of treated wells from 3.27 mm^2. CBD samples were clustered according to their bioactivity levels around the values, 0.20, 0.30, 0.50, 0.60, 0.70, 0.80, 0.90, and 0.95. Mg dosages of 5, 10, 25, 40, and 100 were examined.
Culture Substrate Coatings. Tissue culture polystyrene (TCPS) plates (24-well or 96-well) were coated with type I collagen (Coll) (Inamed Biomaterials, Fremont, Calif.; […]), fibronectin (FN, 5 g/cm^2), fibrin (FB, 1.5 g/cm^2), or left untreated (TCPS). For the FB coating, plates were first incubated overnight at 4° C. in fibrinogen (1 mg/mL), followed by three washes with 0.05% Tween 20 in phosphate-buffered saline (PBS) and 1 hour incubation with thrombin (0.6 mg/mL) at 37° C. All coatings were prepared in 50 mM bicarbonate coating buffer, pH 8.5, and rinsed three times with PBS before cell seeding. The amounts of adsorbed proteins were measured on separate plates using the bicinchoninic acid protein assay (Pierce, Rockford, Ill.) to verify adsorption of protein coatings. […]

[1] = Example 4, 5 mg, CBD = 0.95 bioactivity
[2] = Example 4, 10 mg, CBD = 0.95 bioactivity
[3] = Example 4, 25 mg, CBD = 0.95 bioactivity
[4] = Example 4, 40 mg, CBD = 0.95 bioactivity
[5] = Example 4, 100 mg, CBD = 0.95 bioactivity

C=C(C)C1CCC(C)=CC1c1c(O)cc(CCCCC)cc1O (stereo not drawn) [CBD, 2-(6-isopropenyl-3-methyl-2-cyclohexen-l-yl)-5-pentyl-1,3-benzenediol]
Calcification reduction, M (5 mg, bioactivity .20): 5.17% | Calcification reduction, Max (5 mg, bioactivity .20): 6.9% | Calcification reduction, Min (5 mg, bioactivity .20): 3.8% | Calcification reduction, M (5 mg, bioactivity .30): 6.16% | Calcification reduction, Max (5 mg, bioactivity .30): 7.3% | Calcification reduction, Min (5 mg, bioactivity .30): 5.2% | Calcification reduction, M (5 mg, bioactivity .50): 7.63% | Calcification reduction, Max (5 mg, bioactivity .50): 9.1% | Calcification reduction, Min (5 mg, bioactivity .50): 5.3% | Calcification reduction, M (5 mg, bioactivity .60): 7.99% | Calcification reduction, Max (5 mg, bioactivity .60): 10.4% | Calcification reduction, Min (5 mg, bioactivity .60): 6.2% | Calcification reduction, M (5 mg, bioactivity .70): 10.06% | Calcification reduction, Max (5 mg, bioactivity .70): 13.6% | Calcification reduction, Min (5 mg, bioactivity .70): 7.3% | Calcification reduction, M (5 mg, bioactivity .80): 14.32% | Calcification reduction, Max (5 mg, bioactivity .80): 16.6% | Calcification reduction, Min (5 mg, bioactivity .80): 11.3% | Calcification reduction, M (5 mg, bioactivity .90): 18.06% | Calcification reduction, Max (5 mg, bioactivity .90): 21% | Calcification reduction, Min (5 mg, bioactivity .90): 14.6% | Calcification reduction, M (5 mg, bioactivity .95): 19.42% | Calcification reduction, Max (5 mg, bioactivity .95): 22.1% | Calcification reduction, Min (5 mg, bioactivity .95): 15.4% | Calcification reduction, M (10 mg, bioactivity .20): 4.95% | Calcification reduction, Max (10 mg, bioactivity .20): 6.2% | Calcification reduction, Min (10 mg, bioactivity .20): 3.7% | Calcification reduction, M (10 mg, bioactivity .30): 6.24% | Calcification reduction, Max (10 mg, bioactivity .30): 7.5% | Calcification reduction, Min (10 mg, bioactivity .30): 4.9% | Calcification reduction, M (10 mg, bioactivity .50): 9.77% | Calcification reduction, Max (10 mg, bioactivity .50): 11.7% | Calcification reduction, Min (10 mg, bioactivity .50): 7.7% | Calcification reduction, M (10 mg, bioactivity .60): 11.8% | Calcification reduction, Max (10 mg, bioactivity .60): 14.3% | Calcification reduction, Min (10 mg, bioactivity .60): 9.2% | Calcification reduction, M (10 mg, bioactivity .70): 14.33% | Calcification reduction, Max (10 mg, bioactivity .70): 17.2% | Calcification reduction, Min (10 mg, bioactivity .70): 10.2% | Calcification reduction, M (10 mg, bioactivity .80): 20.03% | Calcification reduction, Max (10 mg, bioactivity .80): 24.6% | Calcification reduction, Min (10 mg, bioactivity .80): 15.9% | Calcification reduction, M (10 mg, bioactivity .90): 25.04% | Calcification reduction, Max (10 mg, bioactivity .90): 30.3% | Calcification reduction, Min (10 mg, bioactivity .90): 20.5% | Calcification reduction, M (10 mg, bioactivity .95): 25.56% | Calcification reduction, Max (10 mg, bioactivity .95): 32.5% | Calcification reduction, Min (10 mg, bioactivity .95): 18.5% | Calcification reduction, M (25 mg, bioactivity .20): 6.07% | Calcification reduction, Max (25 mg, bioactivity .20): 7.1% | Calcification reduction, Min (25 mg, bioactivity .20): 4.8% | Calcification reduction, M (25 mg, bioactivity .30): 6.23% | Calcification reduction, Max (25 mg, bioactivity .30): 8.1% | Calcification reduction, Min (25 mg, bioactivity .30): 4.6% | Calcification reduction, M (25 mg, bioactivity .50): 10.89% | Calcification reduction, Max (25 mg, bioactivity .50): 12.5% | Calcification reduction, Min (25 mg, bioactivity .50): 9.5% | Calcification reduction, M (25 mg, bioactivity .60): 13.75% | Calcification reduction, Max (25 mg, bioactivity .60): 15.3% | Calcification reduction, Min (25 mg, bioactivity .60): 10.5% | Calcification reduction, M (25 mg, bioactivity .70): 16.55% | Calcification reduction, Max (25 mg, bioactivity .70): 18.6% | Calcification reduction, Min (25 mg, bioactivity .70): 14.3% | Calcification reduction, M (25 mg, bioactivity .80): 24.94% | Calcification reduction, Max (25 mg, bioactivity .80): 30.3% | Calcification reduction, Min (25 mg, bioactivity .80): 20.2% | Calcification reduction, M (25 mg, bioactivity .90): 30.51% | Calcification reduction, Max (25 mg, bioactivity .90): 35.6% | Calcification reduction, Min (25 mg, bioactivity .90): 23.5% | Calcification reduction, M (25 mg, bioactivity .95): 32.69% | Calcification reduction, Max (25 mg, bioactivity .95): 42.6% | Calcification reduction, Min (25 mg, bioactivity .95): 26.3% | Calcification reduction, M (40 mg, bioactivity .20): 5.19% | Calcification reduction, Max (40 mg, bioactivity .20): 6.9% | Calcification reduction, Min (40 mg, bioactivity .20): 3.6% | Calcification reduction, M (40 mg, bioactivity .30): 7.13% | Calcification reduction, Max (40 mg, bioactivity .30): 8.1% | Calcification reduction, Min (40 mg, bioactivity .30): 5.1% | Calcification reduction, M (40 mg, bioactivity .50): 14.2% | Calcification reduction, Max (40 mg, bioactivity .50): 17.1% | Calcification reduction, Min (40 mg, bioactivity .50): 12% | Calcification reduction, M (40 mg, bioactivity .60): 19.23% | Calcification reduction, Max (40 mg, bioactivity .60): 21.9% | Calcification reduction, M (40 mg, bioactivity .70): 24.7% | Calcification reduction, Max (40 mg, bioactivity .70): 33% | Calcification reduction, Min (40 mg, bioactivity .70): 18.9% | Calcification reduction, M (40 mg, bioactivity .80): 28.54% | Calcification reduction, Max (40 mg, bioactivity .80): 34.6% | Calcification reduction, Min (40 mg, bioactivity .80): 22.4% | Calcification reduction, M (40 mg, bioactivity .90): 40.09% | Calcification reduction, Max (40 mg, bioactivity .90): 44.6% | Calcification reduction, Min (40 mg, bioactivity .90): 33.7% | Calcification reduction, M (40 mg, bioactivity .95): 42.98% | Calcification reduction, Max (40 mg, bioactivity .95): 54.5% | Calcification reduction, Min (40 mg, bioactivity .95): 35.8% | Calcification reduction, M (100 mg, bioactivity .20): 6.1% | Calcification reduction, Max (100 mg, bioactivity .20): 7.5% | Calcification reduction, Min (100 mg, bioactivity .20): 5.2% | Calcification reduction, M (100 mg, bioactivity .30): 7.2% | Calcification reduction, Max (100 mg, bioactivity .30): 8.4% | Calcification reduction, Min (100 mg, bioactivity .30): 6% | Calcification reduction, M (100 mg, bioactivity .50): 16.1% | Calcification reduction, Max (100 mg, bioactivity .50): 18.1% | Calcification reduction, Min (100 mg, bioactivity .50): 14.1% | Calcification reduction, M (100 mg, bioactivity .60): 21.54% | Calcification reduction, Max (100 mg, bioactivity .60): 23.7% | Calcification reduction, Min (100 mg, bioactivity .60): 18.3% | Calcification reduction, M (100 mg, bioactivity .70): 30.71% | Calcification reduction, Max (100 mg, bioactivity .70): 35.6% | Calcification reduction, Min (100 mg, bioactivity .70): 25.8% | Calcification reduction, M (100 mg, bioactivity .80): 37.74% | Calcification reduction, Max (100 mg, bioactivity .80): 44.4% | Calcification reduction, Min (100 mg, bioactivity .80): 31.7% | Calcification reduction, M (100 mg, bioactivity .90): 48.52% | Calcification reduction, Max (100 mg, bioactivity .90): 54.7% | Calcification reduction, Min (100 mg, bioactivity .90): 37.6% | Calcification reduction, M (100 mg, bioactivity .95): 55% | Calcification reduction, Max (100 mg, bioactivity .95): 66.1% | Calcification reduction, Min (100 mg, bioactivity .95): 41.9% | Calcification reduction, M [1]: 19.42% | Calcification reduction, Max [1]: 22.1% | Calcification reduction, Min [1]: 15.4% | Calcification reduction, M [2]: 25.56% | Calcification reduction, Max [2]: 32.5% | Calcification reduction, Min [2]: 18.5% | Calcification reduction, M [3]: 32.69% | Calcification reduction, Max [3]: 42.6% | Calcification reduction, Min [3]: 26.3% | Calcification reduction, M [4]: 42.98% | Calcification reduction, Max [4]: 54.5% | Calcification reduction, Min [4]: 35.8% | Calcification reduction, M [5]: 55% | Calcification reduction, Max [5]: 66.1% | Calcification reduction, Min [5]: 41.9%
